According to patent publication US10793533B2, “Dimeric contrast agents” (BRACCO IMAGING S.P.A., priority 2016, dated 2020):

Experiment: Relaxometric properties: longitudinal relaxivity r1p in human plasma
Type: physicochemical
Conditions: expressed per mM gadolinium; for r1p at 0.47 T 37° C., human plasma: 0.47 T (20 MHz); for r1p at 1.41 T 37° C., human plasma: 1.41 T (60 MHz)
Experimental: The relaxometric properties of some representative complex compounds according to the invention have been determined at different magnetic field strengths, e.g. including 0.47 and 1.41 T, at 37° C., in human plasma and compared with relaxivity values measured, at the same conditions, for some Gd-complex of the market having an analogous cyclic coordination cage.
The longitudinal water proton relaxation rate (R1=1/T1) was measured at 0.47 T with a Minispec MQ-20 spectrometer (Bruker Biospin, Germany) operating at a proton Larmor frequency of 20 MHz; MR experiments at 1.41 T were performed using a Minispec MQ-60 spectrometer (Bruker Biospin, Germany) operating at a proton Larmor frequency of 60 MHz.
All test articles were used as supplied and diluted in the selected medium (human plasma) by weighting the required amount of paramagnetic chelated complex to get a starting solution of 5 or 10 mM concentration in gadolinium.
Relaxivity Measurements Five different concentration samples (0.1, 0.25, 0.5, 0.75 and 1 mM in gadolinium) for each medium have been prepared by further dilution of the starting 5 or 10 mM solution.
Relaxivity measurements were performed at 0.47 T and 1.41 T at a preset temperature sample of 37° C., kept constant by means of a thermostatic bath connected to the sample holder of the spectrometer. The five sample solutions have been preliminary pre-heated at 37° C. in an external thermostatic bath and then left 10 minutes inside the internal bath to assure the stabilization of the temperature. Longitudinal relaxation time T1 was measured by means of a standard inversion recovery sequence, where the inversion time (TI) was varied from 10 ms to at least 5 times T1 in 15 steps. Statistical analysis (mono-exponential fitting for T1 measurement, linear fitting for the evaluation of longitudinal relaxivity) was performed by Mathematica® (Wolfram, USA). Errors on the estimated parameters were evaluated by the fitting procedure.
The relaxivity values r1p of some representative compounds according to the invention, obtained in human plasma at 37° C., are summarized in the following Table A, together with the structure of tested compounds and the strength of the applied magnetic field (in T), and compared with corresponding values measured for two commercial contrast agents in clinical practice having a macrocyclic chelating cage.

| r1p at 0.47 T 37° C., human plasma [mM⁻¹ s⁻¹] | r1p at 1.41 T 37° C., human plasma [mM⁻¹ s⁻¹] | Structure (SMILES) |
| --- | --- | --- |
| 4.5 | 3.6 | O=C(O)CN1CCN(CC(=O)O)CCN(CC(=O)O)CCN(CC(=O)O)CC1 [reference compound] |
| 10.1 | 9.8 | O=C(O)CN1CCN(CC(=O)O)CCN(CC(O)CN(CC(O)CN2CCN(CC(=O)O)CCN(CC(=O)O)CCN(CC(=O)O)CC2)C(COCCOCCO)COCCOCCO)CCN(CC(=O)O)CC1 (stereo not drawn) |
| 12.1 | 11.5 | COCCOCCOCCN(CCN(CCOCCOCCOC)CC(O)CN1CCN(CC(=O)O)CCN(CC(=O)O)CCN(CC(=O)O)CC1)CC(O)CN1CCN(CC(=O)O)CCN(CC(=O)O)CCN(CC(=O)O)CC1 (stereo not drawn) [Chelate Complex 9] |
| 10.9 | 10.4 | O=C(O)CN1CCN(CC(=O)O)CCN(CC(O)CN(CCOCCOCCO)CC(O)CN2CCN(CC(=O)O)CCN(CC(=O)O)CCN(CC(=O)O)CC2)CCN(CC(=O)O)CC1 (stereo not drawn) |
| 10.6 | 10.3 | COCCOCCOCCOCCN(CC(O)CN1CCN(CC(=O)O)CCN(CC(=O)O)CCN(CC(=O)O)CC1)CC(O)CN1CCN(CC(=O)O)CCN(CC(=O)O)CCN(CC(=O)O)CC1 (stereo not drawn) |

| Structure (SMILES) | r1p at 0.47 T 37° C., human plasma [mM⁻¹ s⁻¹] | r1p at 1.41 T 37° C., human plasma [mM⁻¹ s⁻¹] |
| --- | --- | --- |
| CC(O)CN1CCN(CC(=O)O)CCN(CC(=O)O)CCN(CC(=O)O)CC1 (stereo not drawn) (Gd complex, metal not drawn) [ProHance, reference compound] | 4.9 | 4.15 |
